Paper PMC5520654 (Journal of immunology (Baltimore, Md. : 1950), 2017)
Where two headings read alike, the source gives them in different places.

Assays:
[1] = system: mice with CFA-induced inflammation; format: in vivo, mouse; conditions: ICR mice, CFA in right paw, 200 μCi iv, n=3
[2] = system: VLA-4 positive B16F10 melanoma cells; conditions: previously reported; cited from earlier work

In the case of CB-TE1A1P-PEG4-LLP2A [^64Cu-LLP2A], the Inflamed paw/muscle ratio ([1]; PET/CT 2 h post-injection) is given as 7.5 ± 3.7, the Inflamed paw/muscle ratio ([1]; PET/CT 6 h post-injection) is given as 16.7 ± 1 and the Kd [2] is given as 0.28 nM.
